Reference: PubChem BioAssay AID1963981 (Molecular Pharmacology Branch, DTP, NCI, 2024)

Test system: 354836-022-R-J1-PDC multicell spheroid viability
Experiment: Anticancer human tumor 354836-022-R-J1-PDC patient-derived head and neck squamous cell carcinoma cell line growth inhibition [PI3K]
Conditions: for IC50: curve of first compound; for viability, T/C: stronger effect = lower value; active means viability on the fitted dose curve at most 10% of control; inactive means the rest
How it was run: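 Tumor cells were combined with HUVEC and MSCs into spheroids, then dosed with PI3K-inhibitor combinations over half-log ranges capped near clinical Cmax or 10 microM.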

[1] = second compound 0.00316 µM, first compound 0.0316 µM
[2] = second compound 0.00316 µM, first compound 0.1 µM
[3] = second compound 0.00316 µM, first compound 0.316 µM
[4] = second compound 0.00316 µM, first compound 1 µM
[5] = second compound 0.00316 µM, first compound 3.16 µM
[6] = second compound 0.00316 µM, first compound 10 µM
[7] = second compound 0.01 µM, first compound 0.0316 µM
[8] = second compound 0.01 µM, first compound 0.1 µM
[9] = second compound 0.01 µM, first compound 0.316 µM
[10] = second compound 0.01 µM, first compound 1 µM
[11] = second compound 0.01 µM, first compound 3.16 µM
[12] = second compound 0.01 µM, first compound 10 µM
[13] = second compound 0.0316 µM, first compound 0.0316 µM
[14] = second compound 0.0316 µM, first compound 0.1 µM
[15] = second compound 0.0316 µM, first compound 0.316 µM
[16] = second compound 0.0316 µM, first compound 1 µM
[17] = second compound 0.0316 µM, first compound 3.16 µM
[18] = second compound 0.0316 µM, first compound 10 µM
[19] = second compound 0.1 µM, first compound 0.0316 µM
[20] = second compound 0.1 µM, first compound 0.1 µM
[21] = second compound 0.1 µM, first compound 0.316 µM
[22] = second compound 0.1 µM, first compound 1 µM
[23] = second compound 0.1 µM, first compound 3.16 µM
[24] = second compound 0.1 µM, first compound 10 µM
[25] = second compound 0.316 µM, first compound 0.0316 µM
[26] = second compound 0.316 µM, first compound 0.1 µM
[27] = second compound 0.316 µM, first compound 0.316 µM
[28] = second compound 0.316 µM, first compound 1 µM
[29] = second compound 0.316 µM, first compound 3.16 µM
[30] = second compound 0.316 µM, first compound 10 µM
[31] = second compound 1 µM, first compound 0.0316 µM
[32] = second compound 1 µM, first compound 0.1 µM
[33] = second compound 1 µM, first compound 0.316 µM
[34] = second compound 1 µM, first compound 1 µM
[35] = second compound 1 µM, first compound 3.16 µM
[36] = second compound 1 µM, first compound 10 µM
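Further: spheroids exposed to agents for seven days before the viability read.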

C#Cc1c(F)ccc2cc(O)cc(-c3ncc4c(N5CC6CCC(C5)N6)nc(OCC56CCCN5CC(F)C6)nc4c3F)c12 (centres undefined) + CC(Nc1ccc2c(c1)OCCn1cc(N3C(=O)OCC3C(F)F)nc1-2)C(N)=O
inactive: viability, T/C [1] 106% | viability, T/C [2] 78% | viability, T/C [3] 96.6% | viability, T/C [4] 92.7% | viability, T/C [5] 97.4% | viability, T/C [6] 99.1% | viability, T/C [7] 97.5% | viability, T/C [8] 98.9% | viability, T/C [9] 93.4% | viability, T/C [10] 96.4% | viability, T/C [11] 103% | viability, T/C [12] 99% | viability, T/C [13] 87.3% | viability, T/C [14] 108% | viability, T/C [15] 80.9% | viability, T/C [16] 95.5% | viability, T/C [17] 97.8% | viability, T/C [18] 92.9% | viability, T/C [19] 78.7% | viability, T/C [20] 103% | viability, T/C [21] 78.1% | viability, T/C [22] 92.4% | viability, T/C [23] 88.8% | viability, T/C [24] 71.8% | viability, T/C [25] 70.8% | viability, T/C [26] 89.1% | viability, T/C [27] 79.5% | viability, T/C [28] 79.7% | viability, T/C [29] 83.5% | viability, T/C [30] 61.9% | viability, T/C [31] 70.2% | viability, T/C [32] 56.8% | viability, T/C [33] 55.9% | viability, T/C [34] 59.7% | viability, T/C [35] 57.2% | viability, T/C [36] 54%
> 10 µM: IC50 (second compound 0.00316 µM) | IC50 (second compound 0.01 µM) | IC50 (second compound 0.0316 µM) | IC50 (second compound 0.1 µM) | IC50 (second compound 0.316 µM) | IC50 (second compound 1 µM)

CC(Cn1ccc(-c2ccc(C#N)c(Cl)c2)n1)NC(=O)c1cc(C(C)O)[nH]n1 (centres undefined) + CC(Nc1ccc2c(c1)OCCn1cc(N3C(=O)OCC3C(F)F)nc1-2)C(N)=O
inactive: viability, T/C [1] 99.4% | viability, T/C [2] 88.8% | viability, T/C [3] 96.7% | viability, T/C [4] 86.8% | viability, T/C [5] 94.3% | viability, T/C [6] 73.8% | viability, T/C [7] 95.9% | viability, T/C [8] 103% | viability, T/C [9] 99.6% | viability, T/C [10] 81.8% | viability, T/C [11] 88.3% | viability, T/C [12] 74.8% | viability, T/C [13] 78.9% | viability, T/C [14] 87.6% | viability, T/C [15] 92.5% | viability, T/C [16] 97.4% | viability, T/C [17] 91.1% | viability, T/C [18] 81.8% | viability, T/C [19] 77.2% | viability, T/C [20] 91.9% | viability, T/C [21] 83.7% | viability, T/C [22] 87.3% | viability, T/C [23] 73.9% | viability, T/C [24] 82.9% | viability, T/C [25] 75.3% | viability, T/C [26] 67.5% | viability, T/C [27] 69.8% | viability, T/C [28] 75.5% | viability, T/C [29] 76.8% | viability, T/C [30] 63.6% | viability, T/C [31] 71.2% | viability, T/C [32] 67.4% | viability, T/C [33] 69.5% | viability, T/C [34] 64.3% | viability, T/C [35] 61.4% | viability, T/C [36] 48%
> 10 µM: IC50 (second compound 0.00316 µM) | IC50 (second compound 0.01 µM) | IC50 (second compound 0.0316 µM) | IC50 (second compound 0.1 µM) | IC50 (second compound 0.316 µM)
8.45 µM: IC50 (second compound 1 µM)
